Tests used:
A53T a-syn = assay: Human a-syn immunoblot of cortical neuron lysates; assay type: cell-based; conditions: neuronal lysates
Method: Pregnant rats (E17) of the Sprague-Dawley strain were purchased from Envigo. Embryos were surgically removed from the mothers and cortices dissected in Hanks Balanced salt solution (Gibco). The meninges were removed, and cells were dissociated using a papain dissociation system (Worthington) before being resuspended in Neurobasal medium A supplemented with antibiotic-antimycotic solution (Gibco), L-glutamine substitute (GlutaMAX™; Gibco) and factor B27 (Gibco). Cells were plated on poly-D-lysine coated glass coverslips at a density of 5 × 10^5 cells/well, or on poly-D-lysine coated six-well cell culture plates at a density of 2 × 10^6 cells/well, and incubated at 37 °C in 5% CO2 with half media changes every 3 days. Cells were transduced with A53T a-syn or EV AAVs at 2 days post-isolation at a MOI of 3000. After 3 days, media containing AAV vectors were removed. […] Cells were fixed with 4% paraformaldehyde (PFA) for immunofluorescence staining or lysed for immunoblotting at 8 days post-isolation.
Infected neurons were scraped from 6-well dishes and lysed with RIPA buffer containing protease inhibitor cocktail (Roche). The Triton-X-100 soluble fraction was then separated from the insoluble pellet by centrifugation. Protein concentration was quantified using the DC protein assay (BioRad). […]

full-length YFP = assay: YFP fluorescence in rat cortical neurons, full length YFP; assay type: cell-based
From the text: Adeno-associated virus (AAV) of a 1/2 serotype was used to express A53T a-syn (AAV-A53T), a truncated version of A53T a-syn lacking amino acids 103–140 (Δa-syn(103–140)), and WT a-syn, fused to either the N-terminal half of YFP (AAV-V1S) or the C-terminal half of YFP (AAV-SV2), all under the control of the CAG promoter, a hybrid of the chicken beta-actin (CBA) promoter fused with the cytomegalovirus (CMV) immediate early enhancer sequence (GeneDetect Ltd.)[46].
Pregnant rats (E17) of the Sprague-Dawley strain were purchased from Envigo. Embryos were surgically removed from the mothers and cortices dissected in Hanks Balanced salt solution (Gibco). […]
Confocal images of primary cortical neurons, iPSC-derived dopaminergic neurons, and LAMP1 staining within the SN were processed using Imaris software (Oxford instruments). […] Mean pixel intensity per GFP^+ cell (for experiments using GFP-tagged peptides) or RFP^+ cell (for experiments using RFP-tagged peptides) was calculated for a-syn or LAMP1 signal using the software’s surfaces module. The software’s surfaces module was used to identify GFP^+/NeuN^+ cells, and number of pS129 a-syn^+ puncta per GFP^+/NeuN^+ cortical neuron was counted using the software’s spots module. Mean pixel intensity per RFP^+/NeuN^+ cortical neuron was calculated for Rab7, cathepsin B, or cathepsin D signals using the software’s surfaces module. […]

LAMP1 = LAMP1 fluorescence in rat cortical neurons; assay type: cell-based; conditions: A53T a-syn
From the text: (§1) Pregnant rats (E17) of the Sprague-Dawley strain were purchased from Envigo. Embryos were surgically removed from the mothers and cortices dissected in Hanks Balanced salt solution (Gibco). The meninges were removed, and cells were dissociated using a papain dissociation system (Worthington) before being resuspended in Neurobasal medium A supplemented with antibiotic-antimycotic solution (Gibco), L-glutamine substitute (GlutaMAX™; Gibco) and factor B27 (Gibco). […]
(§2) After fixation, cells were permeabilized with 0.2% Triton-X-100 for 15 min, washed three times with PBS and then incubated with blocking solution (1% BSA, 22.52 mg/mL glycine, 0.1% Tween-20 in PBS or 0.4% saponin, 1% BSA, and 5% goat or donkey serum in PBS) for 1 h. […] Following another three washes with PBS, nuclei were counterstained with DAPI (ThermoFisher) and then coverslips were mounted on slides using Dako fluorescence mounting medium (Agilent) and sealed using clear nail varnish.
(§3) Confocal images of primary cortical neurons, iPSC-derived dopaminergic neurons, and LAMP1 staining within the SN were processed using Imaris software (Oxford instruments). […] Mean pixel intensity per GFP^+ cell (for experiments using GFP-tagged peptides) or RFP^+ cell (for experiments using RFP-tagged peptides) was calculated for a-syn or LAMP1 signal using the software’s surfaces module. […]

cathepsin D = assay: Cathepsin D fluorescence in rat cortical neurons; assay type: cell-based; conditions: A53T a-syn
From the text: as §1, §2, §3

[1] = tested on: LAMP1 in iPSC-derived dopaminergic neurons; assay: LAMP1 fluorescence in iPSC-derived dopaminergic neurons; assay type: cell-based, human; conditions: A53T a-syn iPSC-derived dopaminergic neurons
Method: A53T a-syn iCell Dopa neurons (catalog #R1109) and isogenic control iCell Dopa neurons (catalog #R1088) were purchased from Fujifilm Cellular Dynamics (Madison, WI, USA) and cultured as per the manufacturer’s instructions. Briefly, cells were plated in complete maintenance medium provided by the manufacturer on poly-L-ornithine/laminin coated μ plates (ibidi). Cells recovered from thawing for 24 h and then were transduced with AAV-Scramble1.3-RFP or AAV-PDpep1.3-RFP at MOI of 3000 for 48 h at which time media was completely changed. Cells were fixed using 4% PFA at 7 days post-plating.
Confocal images of immunofluorescent staining were acquired with a Zeiss LSM880 confocal microscope equipped with 405, 488, 555, and 639 nm laser lines. All images were taken within the linear range at constant gain and pinhole settings at optimal resolution settings determined by the software. […]
as §3

## DEEIERQLKALG [PDpep1.3]
A53T a-syn
  Effect on total A53T a-syn protein: corresponding reduction in total A53T a-syn protein levels
full-length YFP
  Effect on YFP fluorescence, full-length YFP: had no effect on fluorescence of YFP alone
LAMP1
  Effect on LAMP1, neurons: restored LAMP1 levels
Cathepsin D
  Effect on cathepsin D: reduced to control levels
[1]
  Effect on LAMP1 levels, iPSC neurons: LAMP1 levels to those of isogenic controls
